ChEMBL document CHEMBL1123608, “In vivo antitumor activity of 6-benzyl-1,3-benzodioxole derivatives against the P388, L1210, B16, and M5076 murine models” (1987)
Active and inactive are the calls of the source. The calls are words filed in the database; no cut-off is given here.

Experiments:
[1] = system: Mus musculus; assay: In vivo antitumor activity against the L1210 leukemia cell line expressed as percent increase in life span; IA means inactive; type: functional, organism-based
[2] = system: Mus musculus; assay: Percent increase in life span (ILS) was measured on P388 cells which were inoculated intraperitoneally in CD2F1 mice at 8 mg/kg; type: functional; settings: P388, ip, route intraperitoneal
[3] = system: Mus musculus; assay: In vivo antitumor activity against the B16 melanoma cell line expressed as percent increase in life span; IA means inactive; type: functional, organism-based
[4] = system: Mus musculus; assay: In vivo antitumor activity against the B16 melanoma cell line expressed as percent increase in life span at 1 mg/kg dose; type: functional
[5] = system: Mus musculus; assay: In vivo antitumor activity against the M5076 reticulum cell sarcoma expressed as percent increase in life span at 4 mg/kg dose; type: functional
[6] = system: Mus musculus; assay: Percent increase in life span (ILS) was measured on P388 cells which were inoculated intraperitoneally in CD2F1 mice; type: functional
[7] = system: Mus musculus; assay: The percent increase in life span on P388 cells which were inoculated intraperitoneally in CD2F1 mice at 240 mg/kg dose placed at ranking order 1; type: functional; settings: P388, ip, route intraperitoneal
[8] = system: Mus musculus; assay: The percent increase in life span on P388 cells which were inoculated intraperitoneally in CD2F1 mice at 100 mg/kg dose placed at ranking order 2; type: functional; settings: P388, ip, route intraperitoneal
[9] = system: Mus musculus; assay: In vivo antitumor activity against the B16 melanoma cell line determined as number of cured out of the number tested at 10 mg/kg dose ( out of 10 mice); type: functional
[10] = system: Mus musculus; assay: In vivo antitumor activity against the L1210 leukemia cell line expressed as percent increase in life span at 8 mg/kg dose; type: functional
[11] = system: Mus musculus; assay: Percent increase in life span (ILS) was measured on P388 cells which were inoculated intraperitoneally in CD2F1 mice at 16 mg/kg; type: functional; settings: P388, ip, route intraperitoneal
[12] = system: Mus musculus; assay: In vivo antitumor activity against the L1210 leukemia cell line determined as number of cured out of the number tested at 4 mg/kg dose ( out of 10 mice); type: functional
[13] = system: Mus musculus; assay: In vivo antitumor activity against the M5076 reticulum cell sarcoma expressed as percent increase in life span at 32 mg/kg dose; type: functional
[14] = system: Mus musculus; assay: In vivo antitumor activity against the L1210 leukemia cell line expressed as percent increase in life span at 4 mg/kg dose; type: functional
[15] = system: Mus musculus; assay: In vivo antitumor activity against the B16 melanoma cell line expressed as percent increase in life span at 8 mg/kg dose; type: functional
[16] = species: Mus musculus; assay: P388 activity determined as number of cured out of the number tested in 6 CD2F1 mice; type: functional
[17] = system: Mus musculus; assay: In vivo antitumor activity against the B16 melanoma cell line determined as number of cured out of the number tested at 8 mg/kg dose ( out of 6 mice); type: functional
[18] = system: Mus musculus; assay: In vivo antitumor activity against the B16 melanoma cell line expressed as percent increase in life span at 10 mg/kg dose; type: functional
[19] = system: Mus musculus; assay: In vivo antitumor activity against the L1210 leukemia cell line determined as number of cured out of the number tested at 8 mg/kg dose ( out of 8 mice); type: functional
[20] = system: Mus musculus; assay: The percent increase in life span on P388 cells which were inoculated intraperitoneally in CD2F1 mice at 50 mg/kg dose placed at ranking order 3; type: functional; settings: P388, ip, route intraperitoneal
[21] = system: Mus musculus; assay: The percent increase in life span on P388 cells which were inoculated intraperitoneally in CD2F1 mice at 200 mg/kg dose placed at ranking order 2; type: functional; settings: P388, ip, route intraperitoneal
[22] = system: Mus musculus; assay: The percent increase in life span on P388 cells which were inoculated intraperitoneally in CD2F1 mice at 5 mg/kg dose placed at ranking order 1; type: functional; settings: P388, ip, route intraperitoneal
[23] = system: Mus musculus; assay: The percent increase in life span on P388 cells which were inoculated intraperitoneally in CD2F1 mice at 240 mg/kg dose placed at ranking order 2; type: functional; settings: P388, ip, route intraperitoneal
[24] = system: Mus musculus; assay: The percent increase in life span on P388 cells which were inoculated intraperitoneally in CD2F1 mice at 480 mg/kg dose placed at ranking order 1; type: functional; settings: P388, ip, route intraperitoneal

COc1cc([C@@H]2c3cc4c(cc3[C@H](O)[C@H]3COC(=O)[C@H]23)OCO4)cc(OC)c1OC [PODOFILOX]
ILS [1]: inactive | ILS at 8 mg/kg [2]: 52% | ILS [3]: inactive | ILS at 1 mg/kg [4]: 28% | ILS at 4 mg/kg [5]: 46%

CCCOc1cc2c(cc1C(C)c1ccc(OCC)cc1)OCO2 (stereo not drawn)
ILS [6]: 41% | ILS at 240 mg/kg [7]: 41% | ILS at 100 mg/kg [8]: 26%

O=c1[nH]cc(F)c(=O)[nH]1 [FLUOROURACIL]
ILS [6]: 73%

COc1cc([C@@H]2c3cc4c(cc3[C@@H](O[C@@H]3O[C@@H]5CO[C@@H](C)O[C@H]5[C@H](O)[C@H]3O)[C@H]3COC(=O)[C@H]23)OCO4)cc(OC)c1O [ETOPOSIDE]
No. of cures [9]: 6 | ILS at 8 mg/kg [10]: > 511% | ILS at 16 mg/kg [11]: 219% | No. of cures [12]: 2 | ILS at 32 mg/kg ([13]; Mus musculus, M5076, dose 32 mg/kg): 87% | ILS ([13]; dose 32 mg/kg): 72% | ILS at 4 mg/kg [14]: 118% | ILS at 8 mg/kg [15]: > 176% | No. of cures [16]: 3 | No. of cures [17]: 3 | ILS at 10 mg/kg [18]: > 185% | No. of cures [19]: 4

CCOc1ccc(C(C)c2cc3c(cc2OCC)OCO3)cc1 (stereo not drawn)
ILS at 50 mg/kg [20]: 36% | ILS [6]: 71% | ILS at 200 mg/kg [21]: 56% | ILS at 5 mg/kg [22]: 71%

CCOc1cc2c(cc1C(C)(C)c1ccc(OC)cc1)OCO2
ILS at 240 mg/kg [23]: 25% | ILS at 480 mg/kg [24]: 35% | ILS [6]: 35%
